The record followed here is patent publication US9469617B2, “Molecules having certain pesticidal utilities, and intermediates, compositions, and processes related thereto” (priority 2014, dated 2016).

Molecules are shown by their SMILES. Counter-ions that a name gives are not always drawn. Like-named read-outs stand apart in the source and are kept apart here.

Holding throughout (format): in vivo
Data set [1] has as its system Cabbage Looper (CL) (Trichoplusia ni). As to the kind of experiment: Bioassay on Cabbage Looper (CL), 128-well diet tray assay. As to conditions: 168 h, read-out: CL % Control (or Mortality) rating. The method, then: (§1) Certain molecules disclosed in this document were tested against BAW and CL using procedures described in the following examples. In the reporting of the results, the “BAW & CL Rating Table” was used (See Table Section).
Bioassays on CL were conducted using a 128-well diet tray assay. One to five second instar CL larvae were placed in each well (3 mL) of the diet tray that had been previously filled with 1 mL of artificial diet to which 50 μg/cm^2 of the test compound (dissolved in 50 μL of 90:10 acetone-water mixture) had been applied (to each of eight wells) and then allowed to dry. Trays were covered with a clear self-adhesive cover, and held at 25° C., 14:10 light-dark for five to seven days. Percent mortality was recorded for the larvae in each well; activity in the eight wells was then averaged. The results are indicated in the table entitled “Table ABC: Assay Results” and “Table ABCD: Assay Results” (See Table Section).

For data set [2], the system named is Beet Armyworm (BAW) (Spodoptera exigua). As to the kind of experiment: Bioassay on Beet Armyworm (BAW), 128-well diet tray assay. As to conditions: 168 h, read-out: BAW % Control (or Mortality) rating. The procedure: as §1
Bioassays on BAW were conducted using a 128-well diet tray assay. one to five second instar BAW larvae were placed in each well (3 mL) of the diet tray that had been previously filled with 1 mL of artificial diet to which 50 μg/cm^2 of the test compound (dissolved in 50 μL of 90:10 acetone-water mixture) had been applied (to each of eight wells) and then allowed to dry. Trays were covered with a clear self-adhesive cover, and held at 25° C., 14:10 light-dark for five to seven days. Percent mortality was recorded for the larvae in each well; activity in the eight wells was then averaged. The results are indicated in the tables entitled “Table ABC: Assay Results” and “Table ABCD: Assay Results” (See Table Section).

For data set [3], the system named is Yellow Fever Mosquito (YFM) (Aedes aegypti). As to the kind of experiment: Bioassay on Yellow Fever Mosquito (YFM) larvae, 96-well plate. As to conditions: about 1 day-old larvae, master plate 4000 ppm in DMSO diluted, scored on mortality after 3 days. The method, then: Certain molecules disclosed in this document were tested against YFM using procedures described in the following paragraph. In the reporting of the results, the “GPA & YFM Rating Table” was used (See Table Section).
Master plates containing 400 μg of a molecule dissolved in 100 μL of dimethyl sulfoxide (DMSO) (equivalent to a 4000 ppm solution) are used. A master plate of assembled molecules contains 15 μL per well. To this plate, 135 μL of a 90:10 water:acetone mixture is added to each well. A robot (Biomek® NXP Laboratory Automation Workstation) is programmed to dispense 15 μL aspirations from the master plate into an empty 96-well shallow plate (“daughter” plate). There are 6 reps (“daughter” plates) created per master. The created daughter plates are then immediately infested with YFM larvae.
The day before plates are to be treated, mosquito eggs are placed in Millipore water containing liver powder to begin hatching (4 g. into 400 mL). After the daughter plates are created using the robot, they are infested with 220 μL of the liver powder/larval mosquito mixture (about 1 day-old larvae). After plates are infested with mosquito larvae, a non-evaporative lid is used to cover the plate to reduce drying. Plates are held at room temperature for 3 days prior to grading. After 3 days, each well is observed and scored based on mortality.

The mark [4] stands for this setting: Table ABCD, 50 μg/cm^2 on artificial diet, second instar larvae, five to seven days, 25° C.
[5] abbreviates: Table ABC, 50 μg/cm^2 on artificial diet, second instar larvae, five to seven days, 25° C.

As to `CC(C)(C)OC(=O)NC1Cc2ccc(-c3ncn(-c4ccc(OC(F)(F)C(F)(F)F)cc4)n3)cc2C1` (centres unmarked) [C2, tert-butyl (5-(1-(4-(perfluoroethoxy)phenyl)-1H-1,2,4-triazol-3-yl)-2,3-dihydro-1H-inden-2-yl)carbamate], the mortality at 50 µg/cm2 in data set [1] (setting [4]) and in data set [2] (setting [4]) was 50 to 100% in each case. Consider `NC1Cc2ccc(-c3ncn(-c4ccc(OC(F)(F)F)cc4)n3)cc2C1` (centres unmarked) [C3, 5-(1-(4-(trifluoromethoxy)phenyl)-1H-1,2,4-triazol-3-yl)-2,3-dihydro-1H-inden-2-amine dihydrochloride], for which the mortality at 50 µg/cm2 in data set [1] and in data set [2] was 50 to 100% throughout. Further, in data set [3] (Table ABCD), the “YFM % Control (or Mortality) rating” value was “A (80-100)”.

In the case of `NC1Cc2ccc(-c3ncn(-c4ccc(OC(F)(F)F)cc4)n3)cc2C1.O=C(O)C(F)(F)F` (centres unmarked) [C4, 5-(1-(4-(trifluoromethoxy)phenyl)-1H-1,2,4-triazol-3-yl)-2,3-dihydro-1H-inden-2-amine 2,2,2-trifluoroacetate], the “YFM % Control (or Mortality) rating” value in data set [3] (Table ABCD) is recorded as “D (No activity noticed in this bioassay)”. Still for that read-out and setting: as for `C=C(C)c1ccc(Cl)cc1[N+](=O)[O-]` [C8, 4-Chloro-2-nitro-1-(prop-1-en-2-yl)benzene], the entry is “D (No activity noticed in this bioassay)”; as for `CCc1ccc(C)cc1NC(=S)NC(=O)c1ccccc1` [C17, N-((2-Ethyl-5-methylphenyl)carbamothioyl)benzamide], “D (No activity noticed in this bioassay)”. As to `COc1ccc(C(C)C)c(NC(=S)NC(=O)c2ccccc2)c1` [C18, N-((2-Isopropyl-5-methoxyphenyl)carbamothioyl)benzamide], the “YFM % Control (or Mortality) rating” value in data set [3] (Table ABCD) is recorded as “D (No activity noticed in this bioassay)”. Consider `CCCc1ccc(C)cc1NC(N)=S` [C20, 1-(5-methyl-2-propylphenyl)thiourea], for which the “YFM % Control (or Mortality) rating” value in data set [3] (Table ABCD) is “D (No activity noticed in this bioassay)”. Consider `CCc1ccc(C)cc1NC(N)=S` [C22, 1-(2-Ethyl-5-methylphenyl)thiourea], for which the “YFM % Control (or Mortality) rating” value in data set [3] (Table ABCD) was “D (No activity noticed in this bioassay)”. As for `Cc1ccc(C(C)C)c(N2C(=N)SCC2=O)c1` [C29, 2-imino-3-(2-isopropyl-5-methylphenyl)thiazolidin-4-one], the mortality at 50 µg/cm2 in data set [1] (setting [4]) lay within 50 to 100%; in data set [2] (setting [4]), 0 to 50%. Besides, the “YFM % Control (or Mortality) rating” value in data set [3] (Table ABCD) is “B (More than 0-Less than 80)”. Take `Cc1ccc(C(C)C)c(N2C(=O)CS/C2=N\C(=O)Oc2ccc([N+](=O)[O-])cc2)c1` [C30, (Z)-4-nitrophenyl (3-(2-isopropyl-5-methylphenyl)-4-oxothiazolidin-2-ylidene)carbamate]: the “YFM % Control (or Mortality) rating” value in data set [3] (Table ABCD) is “D (No activity noticed in this bioassay)”. Moreover, in data set [2], the mortality at 50 µg/cm2 worked out at 0%. Consider `Cc1ccc(C(C)C)c(NC(=S)NC(=O)NC2Cc3ccc(-c4ncn(-c5ccc(OC(F)(F)F)cc5)n4)cc3C2)c1` (centres unmarked) [F1, 1-[(2-isopropyl-5-methyl-phenyl)carbamothioyl]-3-[5-[1-[4-(trifluoromethoxy)phenyl]-1,2,4-triazol-3-yl]indan-2-yl]urea], for which the mortality at 50 µg/cm2 in data set [1] (setting [5]) and in data set [2] (setting [5]) was 50 to 100% throughout. The “YFM % Control (or Mortality) rating” value in data set [3] (Table ABC) is listed as “A (80-100)”.

Consider `Cc1ccc(C(C)C)c(NC(=S)NC(=O)NC2Cc3ccc(-c4ncn(-c5ccc(OC(F)(F)C(F)(F)F)cc5)n4)cc3C2)c1` (centres unmarked) [F3, 1-[(2-isopropyl-5-methyl-phenyl)carbamothioyl]-3-[5-[1-[4-(1,1,2,2,2-pentafluoroethoxy)phenyl]-1,2,4-triazol-3-yl]indan-2-yl]urea], for which the mortality at 50 µg/cm2 in data set [1] (setting [5]) and in data set [2] (setting [5]) was 50 to 100% each time. In addition, the “YFM % Control (or Mortality) rating” value in data set [3] (Table ABC) is given as “A (80-100)”. Regarding `CCc1ccc(C)cc1NC(=S)NC(=O)NC1Cc2ccc(-c3ncn(-c4ccc(OC(F)(F)F)cc4)n3)cc2C1` (centres unmarked) [F5, 1-[(2-Ethyl-5-methyl-phenyl)carbamothioyl]-3-[5-[1-[4-(trifluoromethoxy)phenyl]-1,2,4-triazol-3-yl]indan-2-yl]urea], the mortality at 50 µg/cm2 in data set [1] (setting [5]) and in data set [2] (setting [5]) was 50 to 100% throughout. As to `CCc1cccc(C)c1NC(=S)NC(=O)NC1Cc2ccc(-c3ncn(-c4ccc(OC(F)(F)F)cc4)n3)cc2C1` (centres unmarked) [F6, 1-[(2-Ethyl-6-methyl-phenyl)carbamothioyl]-3-[5-[1-[4-(trifluoromethoxy)phenyl]-1,2,4-triazol-3-yl]indan-2-yl]urea], the mortality at 50 µg/cm2 in data set [1] (setting [5]) and in data set [2] (setting [5]) was 50 to 100% throughout. In the case of `CCc1ccccc1NC(=S)NC(=O)NC1Cc2ccc(-c3ncn(-c4ccc(OC(F)(F)F)cc4)n3)cc2C1` (centres unmarked) [F7, 1-[(2-Ethylphenyl)carbamothioyl]-3-[5-[1-[4-(trifluoromethoxy)phenyl]-1,2,4-triazol-3-yl]indan-2-yl]urea], the mortality at 50 µg/cm2 in data set [1] (setting [5]) and in data set [2] (setting [5]) was 50 to 100% each time. With `CCCc1ccc(C)cc1NC(=S)NC(=O)NC1Cc2ccc(-c3ncn(-c4ccc(OC(F)(F)F)cc4)n3)cc2C1` (centres unmarked) [F8, 1-[(5-Methyl-2-propyl-phenyl)carbamothioyl]-3-[5-[1-[4-(trifluoromethoxy)phenyl]-1,2,4-triazol-3-yl]indan-2-yl]urea], the mortality at 50 µg/cm2 in data set [1] (setting [5]) and in data set [2] (setting [5]) was 50 to 100% in each case. On to `CCc1ccc(C)cc1N1C(=O)CS/C1=N\C(=O)NC1Cc2ccc(-c3ncn(-c4ccc(OC(F)(F)F)cc4)n3)cc2C1` (centres unmarked) [F9, (Z)-1-(3-(2-Ethyl-5-methylphenyl)-4-oxothiazolidin-2-ylidene)-3-(5-(1-(4-(trifluoromethoxy)phenyl)-1H-1,2,4-triazol-3-yl)-2,3-dihydro-1H-inden-2-yl)urea], for which the mortality at 50 µg/cm2 in data set [1] (setting [5]) and in data set [2] (setting [5]) was 50 to 100% throughout. For the same compound, the “YFM % Control (or Mortality) rating” value in data set [3] (Table ABC) is on record as “A (80-100)”. On to `CC(C)c1ccccc1NC(=S)NC(=O)NC1Cc2ccc(-c3ncn(-c4ccc(OC(F)(F)F)cc4)n3)cc2C1` (centres unmarked) [F14, 1-[(2-Isopropylphenyl)carbamothioyl]-3-[5-[1-[4-(trifluoromethoxy)phenyl]-1,2,4-triazol-3-yl]indan-2-yl]urea], for which the mortality at 50 µg/cm2 in data set [1] (setting [5]) and in data set [2] (setting [5]) was 50 to 100% in each case. Regarding `CC(C)c1ccccc1N1C(=O)CCS/C1=N\C(=O)NC1Cc2ccc(-c3ncn(-c4ccc(OC(F)(F)F)cc4)n3)cc2C1` (centres unmarked) [FA4, (Z)-1-(3-(2-isopropylphenyl)-4-oxo-1,3-thiazinan-2-ylidene)-3-(5-(1-(4-(trifluoromethoxy)phenyl)-1H-1,2,4-triazol-3-yl)-2,3-dihydro-1H-inden-2-yl)urea], the mortality at 50 µg/cm2 in data set [1] (setting [5]) and in data set [2] (setting [5]) was 50 to 100% each time. On to `Cc1ccc(C(C)C)c(N2/C(=N/C(=O)NC3Cc4ccc(-c5ncn(-c6ccc(OC(F)(F)F)cc6)n5)cc4C3)SCCC2C)c1` (centres unmarked) [P16, (Z)-1-(3-(2-Isopropyl-5-methylphenyl)-4-methyl-1,3-thiazinan-2-ylidene)-3-(5-(1-(4-(trifluoromethoxy)phenyl)-1H-1,2,4-triazol-3-yl)-2,3-dihydro-1H-inden-2-yl)urea], for which the mortality at 50 µg/cm2 in data set [1] (setting [5]) and in data set [2] (setting [5]) was 50 to 100% each time. Take `Cc1ccc(C(C)C)c(N2C(=O)CCS/C2=N\C(=O)NC2Cc3ccc(-c4ncn(-c5ccc(OC(F)(F)F)cc5)n4)cc3C2)c1` (centres unmarked) [P17, (Z)-1-(3-(2-Isopropyl-5-methylphenyl)-4-oxo-1,3-thiazinan-2-ylidene)-3-(5-(1-(4-(trifluoromethoxy)phenyl)-1H-1,2,4-triazol-3-yl)-2,3-dihydro-1H-inden-2-yl)urea]: the mortality at 50 µg/cm2 in data set [1] (setting [5]) and in data set [2] (setting [5]) was 50 to 100% in each case.

For orientation: mortality means the percentage killed.
